Results as given in US12583825B2, “Benzo[h]quinazolin-4-amine and thieno[3,2-h]quinazolin-4-amine derivatives for the treatment of cancer” (Redona Therapeutics, Inc., priority 2020, dated 2026).

Legend:
recombinant human CLK3 = target: T1, recombinant human CLK3 (Homo sapiens, UniProt P49761); assay: CLK3 kinase assay (LANCE Ultra); type: biochemical; conditions: 0.5 nM CLK3, 300 μM ATP, 3 hours at 30° C.
T1 construct: purchased Thermo Fisher Scientific PV3826
Procedure: CLK3 kinase activity was measured using the LANCE® Ultra technology (PerkinElmer) essentially as recommended by the supplier. Briefly, 2.5 μL of test sample at 4× the desired final concentration in 4% DMSO were dispensed into white, low volume, round bottom, 384 well plates (Corning, cat. no. 4512). 5 μL of a mixture containing recombinant human CLK3 (Thermo Fisher Scientific, cat. no. PV3826) and the labeled peptide substrate ULight™-CREBtide (PerkinElmer, cat. no. TRF0107) prepared in 1.33× kinase buffer (Thermo Fisher Scientific, cat. no. PV3189) were then added. Finally, the reactions were started by adding 2.5 μL of a 4× solution of ATP in kinase buffer. The plates were sealed with adhesive foils and incubated for 3 hours at 30° C. in the dark. The final concentrations of CLK3, ULight™—CREBtide, and ATP were 0.5 nM, 50 nM, and 300 μM, respectively. 5 μL of 40 mM EDTA were then added to terminate the reactions. The Eu-anti-phospho-CREB antibody (PerkinElmer, cat. no. TRF0200) diluted in LANCE® detection buffer (PerkinElmer, cat. no. CR97) was then added to a final concentration of 2 nM and the reactions were incubated for 1 hour at room temperature in the dark. The signals were measured using a Synergy 4 reader (BioTek) with a 320/80 nm filter for the excitation and 620/10 nm and 665/8 nm filters for the donor and acceptor emission, respectively. […] IC50 values were calculated by fitting the concentration-response data to a sigmoidal 4-parameter logistic model.

MDA-MB-231 cells = assay: MDA-MB-231 proliferation assay; type: cell-based; conditions: Homo sapiens, 72 hours, YO-PRO-1 readout
Procedure: MDA-MB-231 Proliferation Assay
MDA-MB-231 cells were cultivated in DMEM High Glucose (4.5 g/L) with L-Glutamine (BioConcept, cat. no. 1-26F03-I) supplemented with 1% Na-pyruvate (Sigma, cat. no. S8636), 1% Penicillin-Streptomycin (BioConcept, cat. no. 4-01F00H), and 10% FBS (Sigma, cat. no. F9665) using standard techniques. Cells were seeded in black, clear-bottom 384 well plates for tissue culture (Greiner Bio-One, cat. no. 781091) at a density of 750 cells per well in 20 μL medium and the plates were incubated overnight at 37° C. with 5% CO2 prior to treatment. Experimental compounds were serially diluted in DMSO to 200× the desired final concentrations. The solutions were then diluted 1:40 with culture medium and 5 μL aliquots were mixed into the wells containing the cells. The final concentration of DMSO was 0.5%. The plates were incubated for 72 hours and cell numbers were then measured using YO-PRO™-1 Iodide (ThermoFisher Scientific, cat. no. Y3603) essentially as recommended by the manufacturer. […] The plates were incubated at room temperature in the dark for 30 minutes. Fluorescence intensity signals were then measured on a Synergy 4 reader (BioTek) using 485/20 nm and 530/25 nm filters for the excitation and emission, respectively. Relative proliferation values were calculated by normalizing the raw data using DMSO-treated cells (100% proliferation) and the signals obtained from cells that were evaluated at the time of compound addition (0% proliferation). The concentration-response data were fitted to a sigmoidal 4-parameter logistic model with the maximum constrained to 100%.

T1 sequence (P49761 whole entry): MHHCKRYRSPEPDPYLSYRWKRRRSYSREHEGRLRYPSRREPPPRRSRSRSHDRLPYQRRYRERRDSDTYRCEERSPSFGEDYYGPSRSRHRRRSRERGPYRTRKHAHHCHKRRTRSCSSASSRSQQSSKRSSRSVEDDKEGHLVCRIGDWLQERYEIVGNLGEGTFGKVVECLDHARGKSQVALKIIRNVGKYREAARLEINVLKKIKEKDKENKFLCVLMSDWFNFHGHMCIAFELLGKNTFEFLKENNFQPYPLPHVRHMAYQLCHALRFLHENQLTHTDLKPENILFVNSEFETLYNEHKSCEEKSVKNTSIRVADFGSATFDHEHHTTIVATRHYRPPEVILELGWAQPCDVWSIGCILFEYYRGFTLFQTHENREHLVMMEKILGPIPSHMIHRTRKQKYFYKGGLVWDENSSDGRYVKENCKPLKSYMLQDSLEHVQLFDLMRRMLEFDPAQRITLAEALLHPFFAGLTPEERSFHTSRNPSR

Compound | IC50 (recombinant human CLK3) [nM] | GI50 (MDA-MB-231 cells) [nM]
CN1C[C@@H](CO/N=C2\c3cc(Cl)ccc3-c3ncnc(N)c3C2(C)C)OC1=O [Example 52, (5S)-5-[[(Z)-(4-amino-8-chloro-5,5-dimethyl-benzo[h]quinazolin-6-ylidene)amino]oxymethyl]-3-methyl-oxazolidin-2-one] | < 1.5 | 445
CN1C[C@@H](CO/N=C2\c3cc(Br)ccc3-c3ncnc(N)c3C2(C)C)OC1=O [Example 53, (5S)-5-[[(Z)-(4-amino-8-bromo-5,5-dimethyl-benzo[h]quinazolin-6-ylidene)amino]oxymethyl]-3-methyl-oxazolidin-2-one] | < 1.5 | 194
CC1(C)/C(=N\OCCC#N)c2cc(O[C@H]3CC[C@H](N)CC3)ccc2-c2ncnc(N)c21 [Example 60, 3-[(E)-[4-amino-8-(trans-4-aminocyclohexoxy)-5,5-dimethyl-benzo[h]quinazolin-6-ylidene]amino]oxypropanenitrile] | 116 | > 2000
CO/N=C1\c2cc(O)ccc2-c2ncnc(N)c2C1(C)C [Example 61, (6Z)-4-amino-6-methoxyimino-5,5-dimethyl-benzo[h]quinazolin-8-ol] | 53.6 | > 2000
CO/N=C1\c2cc(OC3CCNCC3)ccc2-c2ncnc(N)c2C1(C)C [Example 66, (6Z)-6-methoxyimino-5,5-dimethyl-8-(4-piperidyloxy)benzo[h]quinazolin-4-amine] | 13 | 1750
COc1ccc2c(c1)/C(=N\OC[C@@H]1CNC(=O)C1)C(C)(C)c1c(N)ncnc1-2 [Example 72, (4S)-4-[[(Z)-(4-amino-8-methoxy-5,5-dimethyl-benzo[h]quinazolin-6-ylidene)amino]oxymethyl]pyrrolidin-2-one] | 79.3 | > 2000
COc1ccc2c(c1)/C(=N\OC[C@H]1CNC(=O)C1)C(C)(C)c1c(N)ncnc1-2 [Example 73, (4R)-4-[[(Z)-(4-amino-8-methoxy-5,5-dimethyl-benzo[h]quinazolin-6-ylidene)amino]oxymethyl]pyrrolidin-2-one] | 385 | > 2000
CO/N=C1\c2cc(C[C@H]3CC[C@@H](N)CC3)ccc2-c2ncnc(N)c2C1(C)C [Example 75, (6Z)-8-[(cis-4-aminocyclohexyl)methyl]-6-methoxyimino-5,5-dimethyl-benzo[h]quinazolin-4-amine] | 3.4 | 472
CO/N=C1\c2cc(OC)cc(F)c2-c2ncnc(N)c2C1(C)C [Example 77, (6Z)-10-fluoro-8-methoxy-6-methoxyimino-5,5-dimethyl-benzo[h]quinazolin-4-amine] | 84.8 | > 2000
C[C@@H](O)CO/N=C1\c2cc(O[C@H]3CC[C@H](N)CC3)ccc2-c2ncnc(N)c2C1(C)C [Example 78, (2R)-1-[(Z)-[4-amino-8-(trans-4-aminocyclohexoxy)-5,5-dimethyl-benzo[h]quinazolin-6-ylidene]amino]oxypropan-2-ol] | 66.3 | > 2000
CC1(C)/C(=N/O)c2cc(Br)ccc2-c2ncnc(N)c21 [Example 84, (Z)-4-amino-8-bromo-5,5-dimethyl-benzo[h]quinazolin-6-one oxime] | 10.6 | > 2000
CC1(C)/C(=N\O)c2cc(Br)ccc2-c2ncnc(N)c21 [Example 85, (E)-4-amino-8-bromo-5,5-dimethyl-benzo[h]quinazolin-6-one oxime] | 125 | > 2000
CC1(C)/C(=N/OCCO)c2cc(Br)ccc2-c2ncnc(N)c21 [Example 86, 2-[(Z)-(4-amino-8-bromo-5,5-dimethyl-benzo[h]quinazolin-6-ylidene)amino]oxyethanol] | 63 | > 2000
COCCO/N=C1\c2cc(N[C@H]3CC[C@H](N)CC3)ccc2-c2ncnc(N)c2C1(C)C [Example 95, (6Z)—N8-(trans-4-aminocyclohexyl)-6-(2-methoxyethoxyimino)-5,5-dimethyl-benzo[h]quinazoline-4,8-diamine] | 62.5 | 1040
CC(=O)c1ccc2c(c1)/C(=N\OC[C@@H]1CNC(=O)O1)C(C)(C)c1c(N)ncnc1-2 [Example 98, (5S)-5-[[(Z)-(8-acetyl-4-amino-5,5-dimethyl-benzo[h]quinazolin-6-ylidene)amino]oxymethyl]oxazolidin-2-one] | 26 | > 2000

Further lines, results first:

IC50 (recombinant human CLK3) [nM] | GI50 (MDA-MB-231 cells) [nM] | Compound
15.6 | 169 | CC1(C)/C(=N/OCCC#N)c2cc(O[C@H]3CC[C@H](N)CC3)ccc2-c2ncnc(N)c21 [Example 55, 3-[(Z)-[4-amino-8-(trans-4-aminocyclohexoxy)-5,5-dimethyl-benzo[h]quinazolin-6-ylidene]amino]oxypropanenitrile]
< 1.5 | 332 | CN1C[C@@H](CO/N=C2\c3cc(O[C@H]4CC[C@H](N)CC4)ccc3-c3ncnc(N)c3C2(C)C)OC1=O [Example 56, (5S)-5-[[(Z)-[4-amino-8-(trans-4-aminocyclohexoxy)-5,5-dimethyl-benzo[h]quinazolin-6-ylidene]amino]oxymethyl]-3-methyl-oxazolidin-2-one]
2.76 | 207 | CO/N=C1\c2cc(O[C@@H]3CC[C@@H](N)[C@@H](F)C3)ccc2-c2ncnc(N)c2C1(C)C [Example 57, (6Z)-6-methoxyimino-5,5-dimethyl-8-[-(1R,3S,4R)-4-amino-3-fluoro-cyclohexoxy]benzo[h]quinazolin-4-amine]
90.4 | > 2000 | COc1ccc2c(c1)/C(=N\OCCN)C(C)(C)c1c(N)ncnc1-2 [Example 58, (6Z)-6-(2-aminoethoxyimino)-8-methoxy-5,5-dimethyl-benzo[h]quinazolin-4-amine]
265 | > 2000 | COc1ccc2c(c1)/C(=N\OCCCN)C(C)(C)c1c(N)ncnc1-2 [Example 59, (6Z)-6-(3-aminopropoxyimino)-8-methoxy-5,5-dimethyl-benzo[h]quinazolin-4-amine]
< 41 | > 2000 | COc1ccc2c(c1)/C(=N\OC[C@H]1CC(=O)N(C)C1)C(C)(C)c1c(N)ncnc1-2 [Example 76, (4S)-4-[[(Z)-(4-amino-8-methoxy-5,5-dimethyl-benzo[h]quinazolin-6-ylidene)amino]oxymethyl]-1-methyl-pyrrolidin-2-one]
51.5 | > 2000 | COCCO/N=C1\c2cc(Br)ccc2-c2ncnc(N)c2C1(C)C [Example 80, (6Z)-8-bromo-6-(2-methoxyethoxyimino)-5,5-dimethyl-benzo[h]quinazolin-4-amine]
15.8 | > 2000 | CC1(C)/C(=N/OCCC#N)c2cc(Br)ccc2-c2ncnc(N)c21 [Example 81, 3-[(Z)-(4-amino-8-bromo-5,5-dimethyl-benzo[h]quinazolin-6-ylidene)amino]oxypropanenitrile]
142 | > 2000 | CC1(C)/C(=N/OC[C@@H]2CNC(=O)O2)c2cc(C#N)ccc2-c2ncnc(N)c21 [Example 92, (6Z)-4-amino-5,5-dimethyl-6-[[(5S)-2-oxooxazolidin-5-yl]methoxyimino]benzo[h]quinazoline-8-carbonitrile]
18.6 | > 2000 | CC1(C)/C(=N/OC[C@@H]2CNC(=O)O2)c2cc(OCCO)ccc2-c2ncnc(N)c21 [Example 94, (5S)-5-[[(Z)-[4-amino-8-(2-hydroxyethoxy)-5,5-dimethyl-benzo[h]quinazolin-6-ylidene]amino]oxymethyl]oxazolidin-2-one]
43.6 | 670 | COCCO/N=C1\c2cc(N[C@H]3CC[C@@H](N)CC3)ccc2-c2ncnc(N)c2C1(C)C [Example 96, (6Z)—N8-(cis-4-aminocyclohexyl)-6-(2-methoxyethoxyimino)-5,5-dimethyl-benzo[h]quinazoline-4,8-diamine]
